Measurements published in publication PMC4818699 (Angewandte Chemie (International ed. in English), 2016).

Tested on: MoeN5 (MoeN5-CS) (Streptomyces viridosporus)
Experiment: X-ray crystal structure of the complex
Format: binding
Conditions: allylic site S1, near Asp-rich motifs; also PDB 5B03

MoeN5 (MoeN5-CS) (Streptomyces viridosporus), sequence (A0A010 1-260): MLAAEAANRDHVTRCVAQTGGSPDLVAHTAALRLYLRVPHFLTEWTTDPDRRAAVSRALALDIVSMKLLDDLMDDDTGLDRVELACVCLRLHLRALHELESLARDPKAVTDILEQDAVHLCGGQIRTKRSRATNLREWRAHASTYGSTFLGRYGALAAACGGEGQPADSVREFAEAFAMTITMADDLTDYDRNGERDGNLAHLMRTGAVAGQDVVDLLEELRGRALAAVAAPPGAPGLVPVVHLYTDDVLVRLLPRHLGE

In the case of CC(C)=CCC/C(C)=C/COP(=O)(O)OP(=O)(O)O [compound 6, geranyl diphosphate], the “X-ray crystal structure of the complex” value is reported as “GPP binds to MoeN5-CS close to the Asp-rich domains”.
